Results: US10047068B2, “Optical resolution method of lenalidomide” (Shiseido Company, Ltd, priority 2014, dated 2018)

What was measured:
[1] = Stability of lenalidomide in different solvents; format: physicochemical; settings: 0.5 mg/mL racemic mixture, room temperature or 50° C., 24 hours
[2] = Dependence of racemization half-life on pH in aqueous buffers at room temperature; format: physicochemical
Procedure: In order to elucidate the racemization half-life of lenalidomide and its pH dependence, an experiment was conducted with the following scheme and HPLC conditions.
The enantiomeric excess rate (EE, [(S−R)/(S+R)×100], %) at each point is plotted in FIG. 7, and the log10 (EE) vs. time plot is shown in FIG. 8.
This linearity was used to calculate the time for EE=50 based on a straight line approximation (y=ax+b), to determine the racemization half-life. The stability of the pure enantiomer is very highly dependent on pH, the half-life being 10 times longer for every pH reduction of 1, and estimation of the half-life was no longer possible at pH 4. At pH 9, on the other hand, sudden racemization and decomposition were observed.

[3] = Racemization half-life in human serum (37° C.); settings: for racemization half-life in serum, times longer than the corresponding TD enantiomer: human serum, 37° C.
Source text: The analysis method of the invention is shown as scheme (b). The acid used to suspend the reaction while simultaneously precipitating and removing the protein was HClO4.

[4] = Na-phosphate buffer pH 7.4, 37° C., average of 3 tests ± SD
[5] = NPL 11; cited from earlier work

Nc1cccc2c1CN(C1CCC(=O)NC1=O)C2=O (racemic) [lenalidomide, Lenalidomide]
stability in solvent (enantiomer peak areas before and after incubation) ([1]; acetonitrile): no decomposition was observed | stability in solvent (enantiomer peak areas before and after incubation) ([1]; ethanol): highly unstable | stability in solvent (enantiomer peak areas before and after incubation) ([1]; ethyl acetate): no decomposition was observed | stability in solvent (enantiomer peak areas before and after incubation) ([1]; isopropanol): stable | stability in solvent (enantiomer peak areas before and after incubation) ([1]; methanol): highly unstable | racemization and decomposition in aqueous buffer (peak areas) ([2]; pH 9 and 8, room temperature): racemization and decomposition of LL takes place

Nc1cccc2c1CN(C1CCC(=O)NC1=O)C2=O (single isomer, unassigned) [(S*)-LL]
racemization half-life in serum, times longer than the corresponding TD enantiomer [3]: 6 times | racemization half-life in human serum [3]: 2.18 ± 0.0817 h | racemization half-life in aqueous buffer [4]: 4.53 ± 0.0217 h | racemization on incubation in aqueous buffer ([2]; pH 6, room temperature): small amount of (R*)-LL was produced | racemization on incubation in aqueous buffer ([2]; pH 7 and higher, room temperature): racemization was significantly accelerated

O=C1CCC(N2C(=O)c3ccccc3C2=O)C(=O)N1 (racemic) [thalidomide]
excretion half-life [5]: 8.7 h

Nc1cccc2c1CN(C1CCC(=O)NC1=O)C2=O (single isomer, unassigned) [(R*)-LL]
racemization half-life in serum, times longer than the corresponding TD enantiomer [3]: 3 times | racemization half-life in human serum [3]: 1.82 ± 0.0333 h | racemization half-life in aqueous buffer [4]: 4.45 ± 0.0183 h
